In general, Ki refers to the equilibrium dissociation constant of an inhibitor or competing ligand from its target. The low end stands for higher affinity, the high end for lower affinity. As a reminder, the melting point is the temperature of the solid-liquid transition.

For one data set, the target named is T1, human 5-HT1A receptor (Homo sapiens, UniProt P08908).
T1 construct: purchased PerkinElmer; host or cells: CHO-K1 cells, stably transfected
T1 sequence (P08908 1-422): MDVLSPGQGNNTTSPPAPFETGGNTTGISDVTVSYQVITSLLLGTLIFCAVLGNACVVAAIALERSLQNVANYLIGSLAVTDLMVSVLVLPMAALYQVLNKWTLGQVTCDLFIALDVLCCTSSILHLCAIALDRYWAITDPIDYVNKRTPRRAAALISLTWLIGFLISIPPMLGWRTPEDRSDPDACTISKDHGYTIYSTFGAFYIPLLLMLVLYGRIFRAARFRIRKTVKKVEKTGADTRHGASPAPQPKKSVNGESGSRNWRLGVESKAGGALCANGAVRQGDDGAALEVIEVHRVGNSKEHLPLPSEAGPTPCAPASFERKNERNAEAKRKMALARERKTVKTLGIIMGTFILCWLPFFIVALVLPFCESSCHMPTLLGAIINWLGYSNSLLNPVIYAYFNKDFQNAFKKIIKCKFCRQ
The data set is described as follows: 5-HT1A radioligand binding assay. To be noted: [3H]-8-OH-DPAT 1 nM; membranes from CHO-K1 cells with human 5-HT1A receptor. On the procedure:
Radioligand binding was performed using membranes from CHO-K1 cells stably transfected with the human 5-HT1A receptor (PerkinElmer, Fremont, CA, USA). All assays were carried out in duplicate. Then, 50 µL working solution of the tested compounds, 50 µL [^3H]-8-OH-DPAT (final concentration 1 nM) and 150 µL diluted membranes (20 µg protein per well) prepared in assay buffer (50 mM Tris, pH 7.4, 10 mM MgSO4, 0.5 mM EDTA, 0.1% ascorbic acid) were transferred to a polypropylene 96-well microplate using 96-wells pipetting station Rainin Liquidator (MettlerToledo, Columbus, OH, USA). […] The reaction was terminated by rapid filtration through GF/B filter mate, presoaked with 0.5% polyethyleneimine for 30 min. Ten rapid washes with 200 µL 50 mM Tris buffer (4 °C, pH 7.4) were performed using an automated harvester system—Harvester-96 MACH III FM (Tomtec, Hamden, CT, USA). […] Data were fitted to a one-site curve-fitting equation with Prism 6 (GraphPad Software, San Diego, CA, USA) and Ki values were estimated from the Cheng–Prusoff equation.

A further data set concerns the target T2, SERT protein (Rattus norvegicus, UniProt P31652).
T2 construct: from tissue; host or cells: rat cortex
The data set is described as follows: SERT radioligand binding assay. To be noted: [3H]-citalopram 1.0 nM; rat cortex tissue. On the procedure:
Radioligand binding was performed using rat cortex tissue. All assays were carried out in duplicate. First, 50 µL working solution of the tested compounds, 50 µL [^3H]-citalopram (final concentration 1.0 nM) and 150 µL tissue suspension, prepared in assay buffer (50 mM Tris. pH 7.7; 150 mM NaCl; 5 mM KCl), were transferred to a polypropylene 96-well microplate using 96-wells pipetting station Rainin Liquidator (MettlerToledo). […] The reaction was terminated by rapid filtration through GF/B filter mate presoaked with 0.3% polyethyleneimine for 30 min. Ten rapid washes with 200 µL 50 mM Tris buffer (4 °C, pH 7.7) were performed using an automated harvester system—Harvester-96 MACH III FM (Tomtec). […] Data were fitted to a one-site curve-fitting equation with Prism 6 (GraphPad Software) and Ki values were estimated from the Cheng–Prusoff equation.

Another data set deals with T3, 5-HT6 receptors (Homo sapiens, UniProt P50406).
T3 construct: expressed in transfected cells
T3 sequence (P50406 whole entry): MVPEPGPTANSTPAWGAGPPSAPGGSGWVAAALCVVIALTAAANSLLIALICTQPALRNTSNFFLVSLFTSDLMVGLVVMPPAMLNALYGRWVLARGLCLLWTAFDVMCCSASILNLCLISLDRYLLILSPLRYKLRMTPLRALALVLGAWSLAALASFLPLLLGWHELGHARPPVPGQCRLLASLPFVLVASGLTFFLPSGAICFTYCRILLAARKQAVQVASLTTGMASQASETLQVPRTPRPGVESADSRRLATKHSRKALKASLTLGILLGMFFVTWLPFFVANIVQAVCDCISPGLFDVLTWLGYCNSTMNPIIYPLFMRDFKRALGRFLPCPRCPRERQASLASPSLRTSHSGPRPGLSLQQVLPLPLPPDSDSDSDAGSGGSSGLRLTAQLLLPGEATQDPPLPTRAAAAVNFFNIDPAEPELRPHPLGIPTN
Nature of the data set: 5-HT6 radioligand binding assay. To be noted: [3H]-LSD; HEK293 cells, human receptor. How it is done: (§1) In vitro radioligand binding assays for 5-HT2A, 5-HT6, 5-HT7 and D2 receptors were carried out using methods published by Zajdel et al.. For the assays, HEK293 cell cultures stably expressing the investigated human receptors were used. Cell pellets were thawed and homogenized in 20 vol of assay buffer using an Ultra Turrax tissue homogenizer, then centrifuged twice at 35000 g for 20 min at 4 °C, with incubation for 15 min at 37 °C in between. The composition of the assay buffers was as follows: for 5-HT2A receptors—50 mM Tris-HCl, 0.1 mM EDTA, 4 mM MgCl2 and 0.1% ascorbate; for 5-HT6 receptors—50 mM Tris-HCl, 0.5 mM EDTA, 4 mM MgCl2; for 5-HT7 receptors—50 mM Tris-HCl, 4 mM MgCl2, 10 µM pargyline and 0.1% ascorbate; for D2 receptors—50 mM Tris-HCl, 1 mM EDTA, 4 mM MgCl2, 120 mM NaCl, 5 mM KCl, 1.5 mM CaCl2 and 0.1% ascorbate. All assays were incubated in total volume of […] in 96-well microtitre plates for 1 h at 37 °C, except for 5-HT2A receptors which were incubated at room temperature for 1.5 h. The process of equilibration was terminated by rapid filtration through Unifilter plates with a 96-well cell harvester, and radioactivity retained on the filters was quantified on a Microbeta plate reader (PerkinElmer, USA). For displacement studies, the assay samples contained as radioligands (PerkinElmer): 2 nM [^3H]-ketanserin (spec. act. 53.4 Ci/mmol) for 5-HT2A receptors; 2 nM [^3H]-LSD (spec. act. 83.6 Ci/mmol) for 5-HT6 receptors; 0.6 nM [^3H]-5-CT (spec. act. 39.2 Ci/mmol) for 5-HT7 receptors and [^3H]-raclopride (spec. act. 76.0 Ci/mmol) for D2 receptors. […] Each compound was tested in triplicate at 7–8 concentrations (10^-11-10^-4 M). The inhibition constants (Ki) were calculated from the Cheng–Prusoff equation [46]. Results were expressed as means of at least two separate experiments.

The next data set addresses T4, 5-HT7 receptors (Homo sapiens, UniProt P34969).
T4 construct: expressed in transfected cells
Nature of the data set: 5-HT7 radioligand binding assay. Conditions: [3H]-5-CT; HEK293 cells, human receptor. How it is done:
as §1

A further data set deals with T5, D2 receptors (Homo sapiens, UniProt P14416).
T5 construct: expressed in transfected cells
T5 sequence (P14416 whole entry): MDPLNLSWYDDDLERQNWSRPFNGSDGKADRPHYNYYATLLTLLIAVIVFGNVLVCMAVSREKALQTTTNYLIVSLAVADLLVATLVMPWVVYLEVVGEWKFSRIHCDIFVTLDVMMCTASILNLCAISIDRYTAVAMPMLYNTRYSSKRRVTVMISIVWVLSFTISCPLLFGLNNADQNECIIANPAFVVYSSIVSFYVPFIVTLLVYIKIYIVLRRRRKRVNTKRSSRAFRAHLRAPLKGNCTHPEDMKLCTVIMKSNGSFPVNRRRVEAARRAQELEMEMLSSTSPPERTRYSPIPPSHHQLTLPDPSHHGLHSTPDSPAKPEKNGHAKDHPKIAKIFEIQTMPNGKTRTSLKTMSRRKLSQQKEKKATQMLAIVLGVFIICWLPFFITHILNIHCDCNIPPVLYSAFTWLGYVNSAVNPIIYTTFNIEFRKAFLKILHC
The data set is described as follows: D2 radioligand binding assay. To be noted: [3H]-raclopride; HEK293 cells, human receptor. On the procedure:
as §1

T4 sequence (P34969 whole entry): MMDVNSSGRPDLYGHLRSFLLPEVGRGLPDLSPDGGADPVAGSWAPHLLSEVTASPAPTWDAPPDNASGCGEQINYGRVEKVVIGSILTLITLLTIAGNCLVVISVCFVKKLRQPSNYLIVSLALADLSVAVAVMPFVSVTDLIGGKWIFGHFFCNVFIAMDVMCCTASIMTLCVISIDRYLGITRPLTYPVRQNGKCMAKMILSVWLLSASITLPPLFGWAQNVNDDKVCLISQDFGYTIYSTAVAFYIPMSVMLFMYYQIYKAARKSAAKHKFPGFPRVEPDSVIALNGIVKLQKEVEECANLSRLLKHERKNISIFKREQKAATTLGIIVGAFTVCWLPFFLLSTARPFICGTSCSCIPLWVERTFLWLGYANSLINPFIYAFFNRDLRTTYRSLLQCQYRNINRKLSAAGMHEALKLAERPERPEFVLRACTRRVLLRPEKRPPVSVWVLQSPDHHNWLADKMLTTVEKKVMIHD
T2 sequence (P31652 whole entry): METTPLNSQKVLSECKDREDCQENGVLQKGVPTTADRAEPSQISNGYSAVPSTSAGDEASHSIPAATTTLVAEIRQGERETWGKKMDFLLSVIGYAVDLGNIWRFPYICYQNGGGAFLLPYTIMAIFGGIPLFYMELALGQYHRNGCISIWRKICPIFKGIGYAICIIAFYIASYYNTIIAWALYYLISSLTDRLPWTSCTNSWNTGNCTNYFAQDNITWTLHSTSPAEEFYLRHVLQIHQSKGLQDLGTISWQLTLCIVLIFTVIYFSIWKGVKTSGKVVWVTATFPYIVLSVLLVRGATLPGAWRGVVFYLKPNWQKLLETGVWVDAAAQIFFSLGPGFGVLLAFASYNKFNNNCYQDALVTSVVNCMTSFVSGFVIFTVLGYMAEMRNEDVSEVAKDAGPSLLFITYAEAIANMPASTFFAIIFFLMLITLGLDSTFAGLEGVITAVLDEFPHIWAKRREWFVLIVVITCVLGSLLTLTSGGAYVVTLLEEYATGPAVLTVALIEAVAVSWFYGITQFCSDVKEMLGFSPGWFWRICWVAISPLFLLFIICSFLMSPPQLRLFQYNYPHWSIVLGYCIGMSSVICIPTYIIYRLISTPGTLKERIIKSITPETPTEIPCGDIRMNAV

In turn, `O=c1c(-c2ccccc2)c2ccccn2c(=O)n1CCCCN1CCC(c2noc3cc(F)ccc23)CC1` [Compound 6a, 4-Phenyl-2-{4-[4-(6-fluoro-1,2-benzoxazol-3-yl)-1-piperidyl]butyl}-pyrido[1,2-c]pyrimidine-1,3-dione] yielded a melting point of 132 to 133 °C. For the same compound, at human 5-HT1A receptor, the affinity, expressed as Ki, was 23 ± 1 nM. The affinity at SERT protein, expressed as Ki, was 32 ± 3.6 nM. This compound also showed a Ki at 5-HT6 receptors of 376 ± 58 nM. Moreover, affinity on 5-HT7 receptors was put at a Ki of 62 ± 5 nM. Also, the affinity at D2 receptors corresponds to a Ki of 7 ± 2 nM.

`O=c1c(-c2ccccc2Cl)c2ccccn2c(=O)n1CCCCN1CCC(c2noc3cc(F)ccc23)CC1` [Compound 6d, 4-(2-Chlorophenyl)-2-{4-[4-(6-fluoro-1,2-benzoxazol)-1-piperidyl]butyl}-pyrido[1,2-c]pyrimidine-1,3-dione] registered a melting point of 69 to 74 °C. At human 5-HT1A receptor, this compound had a Ki of 11 ± 1.4 nM. The compound further had a Ki at SERT protein of 373 ± 32 nM. The compound also registered a Ki on 5-HT6 receptors of 709 ± 135 nM. This compound also yielded an inhibitory constant (Ki) on 5-HT7 receptors of 109 ± 14 nM. For the same compound, on D2 receptors, the Ki is 9 ± 2 nM.

Values taken from PMC7956643, “Synthesis of Novel Pyrido[1,2-c]pyrimidine Derivatives with 6-Fluoro-3-(4-piperidynyl)-1,2-benzisoxazole Moiety as Potential SSRI and 5-HT1A Receptor Ligands” (International Journal of Molecular Sciences, 2021).
